Test systems include SF-268 CNS; NCI-H226 lung; RPMI-8226 leukemia; MOLT-4 leukemia; A498 renal; HOP-18 NSCLC; HOP-92 NSCLC; DMS 273 small cell lung; SNB-78 CNS; OVCAR-5 ovarian; UO-31 renal; RXF 393 renal; DLD-1 colon; HCC-2998 colon; EKVX NSCLC; SR leukemia; TK-10 renal; MDA-MB-231 breast; T-47D breast; MDA-MB-435.
Holding throughout (test): NCI-60 cell line screen, 48 h

Structures are written as SMILES.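 Where inhibition never reached the appropriate level, the endpoint shown equals the highest concentration tested. Otherwise, values were interpolated linearly from a five-concentration, 48-hour dose response in 96-well plates. TGI: total growth inhibition.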

Consider `COc1cc(N=Nc2cccc(S(=O)(=O)O)c2)ccc1N=Nc1ccc(/C=C/c2ccc(-n3on3-c3ccc(/C=C/c4ccc(N=Nc5ccc(N=Nc6cccc(S(=O)(=O)O)c6)cc5OC)cc4S(=O)(=O)O)c(S(=O)(=O)O)c3)cc2S(=O)(=O)O)c(S(=O)(=O)O)c1`, for which the TGI with SF-268 CNS, in the assay with NCI-H226 lung, in the assay with RPMI-8226 leukemia, with MOLT-4 leukemia, with A498 renal and with HOP-18 NSCLC was greater than 100 µM throughout. Also, the TGI in the assay on HOP-92 NSCLC, in the assay with DMS 273 small cell lung, with SNB-78 CNS, in the assay on OVCAR-5 ovarian, with UO-31 renal and with RXF 393 renal was greater than 100 µM each time. Further, the TGI with DLD-1 colon, in the assay with HCC-2998 colon and in the assay with EKVX NSCLC was greater than 100 µM in each case.
As to `CCOP(=O)(COCCn1ncc(=O)[nH]c1=O)OCC`, the TGI in the assay with SR leukemia, in the assay on TK-10 renal, in the assay with SF-268 CNS, in the assay with NCI-H226 lung, in the assay on RPMI-8226 leukemia and with MOLT-4 leukemia was greater than 100 µM in each case. The TGI in the assay with A498 renal, in the assay with HOP-92 NSCLC, in the assay on MDA-MB-231 breast, in the assay with T-47D breast, with OVCAR-5 ovarian and in the assay on MDA-MB-435 was greater than 100 µM throughout. Besides, the TGI with UO-31 renal, in the assay on RXF 393 renal, in the assay with HCC-2998 colon and in the assay with EKVX NSCLC was greater than 100 µM each time.
In the case of `O=C1NP23(OCCO2)Oc2ccccc2C3(C(F)(F)F)O1` (stereo unspecified), the TGI in the assay with TK-10 renal, with SF-268 CNS, in the assay with NCI-H226 lung, in the assay with MOLT-4 leukemia, in the assay on HOP-18 NSCLC and with DMS 273 small cell lung was greater than 100 µM throughout. Further, the TGI in the assay on SNB-78 CNS and with DLD-1 colon was greater than 100 µM throughout.
Consider `O=C(O)C1C2C=CC(C2)C1c1ccccc1` (stereo unspecified), for which the TGI in the assay with SR leukemia, in the assay with TK-10 renal, with SF-268 CNS, in the assay with NCI-H226 lung, in the assay with RPMI-8226 leukemia and with MOLT-4 leukemia was greater than 100 µM throughout. The TGI in the assay on A498 renal, in the assay with HOP-92 NSCLC, in the assay on MDA-MB-231 breast, in the assay with T-47D breast, with OVCAR-5 ovarian and in the assay on MDA-MB-435 was greater than 100 µM each time. For the same molecule, the TGI with UO-31 renal, with RXF 393 renal, in the assay with HCC-2998 colon and in the assay on EKVX NSCLC was greater than 100 µM in each case.
In the case of `CC(=O)O/C(=C1\C[C@H]2[C@@H]3CC=C4C[C@@H](OC(C)=O)CC[C@]4(C)[C@H]3CC[C@]2(C)C1=O)C(F)(F)F`, the TGI with SR leukemia came to 10.9 µM; in the assay with TK-10 renal it was 32.4 µM; in the assay with SF-268 CNS it was 19.9 µM; in the assay on NCI-H226 lung, 40.7 µM; in the assay with RPMI-8226 leukemia it was 15.8 µM; in the assay with MOLT-4 leukemia, 7.37 µM. Further, the TGI with A498 renal was found to be 45.1 µM; in the assay with HOP-92 NSCLC it was 17.7 µM; in the assay with MDA-MB-231 breast it was 27.6 µM; in the assay on T-47D breast it was 21.2 µM; in the assay with OVCAR-5 ovarian, 58.6 µM; in the assay with MDA-MB-435 it was 16.4 µM. Also, the TGI in the assay with UO-31 renal came out at 32.1 µM; with RXF 393 renal, 15 µM; in the assay on HCC-2998 colon, 19 µM; with EKVX NSCLC, 37.9 µM.
On to `N#CC(OC1OC(COC2OC(CO)C(O)C(O)C2O)C(O)C(O)C1O)c1ccccc1` (stereo unspecified), for which the TGI in the assay with SF-268 CNS, in the assay on NCI-H226 lung, in the assay on RPMI-8226 leukemia, in the assay with MOLT-4 leukemia, in the assay on A498 renal and in the assay on HOP-18 NSCLC was greater than 225 µM each time. Besides, the TGI in the assay with HOP-92 NSCLC, with DMS 273 small cell lung, with SNB-78 CNS, in the assay with OVCAR-5 ovarian, in the assay on UO-31 renal and in the assay with RXF 393 renal was greater than 225 µM throughout. For the same molecule, the TGI in the assay on DLD-1 colon, in the assay on HCC-2998 colon and with EKVX NSCLC was greater than 225 µM each time.

For the origin of these results see PubChem BioAssay (NCI).
